# Measurements published in US20260365670A1, “EGFR INHIBITORS AND USES THEREOF” (DIZAL (JIANGSU) PHARMACEUTICAL CO., LTD., priority 2022, published 2026).
# Read-outs that look alike come from different tables or passages of the source.
# Experiments:
# PC-9 = assay: Cell proliferation assay, PC-9 cells (CellTiter-Glo, 72 hours); type: cell-based; conditions: PC9 cells
# Summary of the method: (§1)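 Ba/F3 cells (5000/well) and PC-9 cells (500/well, RPMI1640 with 10% FBS) were plated overnight and then dosed with a compound concentration series. Viable cells were read at day 0 (G0) and after treatment (G3). GI50 came from curve fits of G0-corrected proliferation relative to DMSO.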
# [1] = target: T1, EGFR[T790M/C797S/d746-750] (Homo sapiens, UniProt P00533, C797S/DEL746-750/T790M); assay: Inhibition of EGFR[T790M/C797S/d746-750] biochemical enzymatic activity (HTRF)
# T1 construct: purchased Carna Bio
# Summary of the method: (§2)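 Using a high ATP level (1 mM), wild-type and mutant EGFR enzymes were incubated 1 h at room temperature with inhibitor and 1 μM biotinylated TK substrate. Phosphorylation was quantified as the 665/615 nm HTRF ratio. IC50s were derived by logistic fitting.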
# EGFR Exon19Del = target: T2, EGFR Exon19Del (Homo sapiens, UniProt P00533, DEL746-750); assay: Inhibition of EGFR Exon19Del biochemical enzymatic activity (HTRF); conditions: read-out: IC50 @Del19
# T2 construct: purchased Carna Bio
# T2 sequence (P00533 with tags, fused parts or gaps DEL746-750 limits assumed): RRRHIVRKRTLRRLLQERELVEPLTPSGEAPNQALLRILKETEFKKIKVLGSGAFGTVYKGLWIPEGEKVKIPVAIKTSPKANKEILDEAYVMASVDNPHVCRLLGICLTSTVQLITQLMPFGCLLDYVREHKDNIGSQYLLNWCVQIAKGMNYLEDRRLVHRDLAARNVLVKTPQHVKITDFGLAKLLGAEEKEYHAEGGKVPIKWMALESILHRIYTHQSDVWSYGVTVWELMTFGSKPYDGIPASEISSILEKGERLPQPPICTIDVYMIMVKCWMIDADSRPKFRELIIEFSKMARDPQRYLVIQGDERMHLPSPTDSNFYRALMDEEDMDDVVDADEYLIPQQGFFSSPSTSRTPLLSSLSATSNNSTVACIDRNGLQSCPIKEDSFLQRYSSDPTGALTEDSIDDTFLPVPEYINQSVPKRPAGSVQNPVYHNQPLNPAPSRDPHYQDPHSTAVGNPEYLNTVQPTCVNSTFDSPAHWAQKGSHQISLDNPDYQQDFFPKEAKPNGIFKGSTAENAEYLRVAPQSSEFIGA
# Summary of the method: as §2
# EGFR wild type = target: T3, EGFR wild type (Homo sapiens, UniProt P00533); assay: Inhibition of EGFR wild type biochemical enzymatic activity (HTRF); conditions: 1 mM ATP
# T3 construct: purchased Carna Bio
# T3 sequence (P00533 25-1210): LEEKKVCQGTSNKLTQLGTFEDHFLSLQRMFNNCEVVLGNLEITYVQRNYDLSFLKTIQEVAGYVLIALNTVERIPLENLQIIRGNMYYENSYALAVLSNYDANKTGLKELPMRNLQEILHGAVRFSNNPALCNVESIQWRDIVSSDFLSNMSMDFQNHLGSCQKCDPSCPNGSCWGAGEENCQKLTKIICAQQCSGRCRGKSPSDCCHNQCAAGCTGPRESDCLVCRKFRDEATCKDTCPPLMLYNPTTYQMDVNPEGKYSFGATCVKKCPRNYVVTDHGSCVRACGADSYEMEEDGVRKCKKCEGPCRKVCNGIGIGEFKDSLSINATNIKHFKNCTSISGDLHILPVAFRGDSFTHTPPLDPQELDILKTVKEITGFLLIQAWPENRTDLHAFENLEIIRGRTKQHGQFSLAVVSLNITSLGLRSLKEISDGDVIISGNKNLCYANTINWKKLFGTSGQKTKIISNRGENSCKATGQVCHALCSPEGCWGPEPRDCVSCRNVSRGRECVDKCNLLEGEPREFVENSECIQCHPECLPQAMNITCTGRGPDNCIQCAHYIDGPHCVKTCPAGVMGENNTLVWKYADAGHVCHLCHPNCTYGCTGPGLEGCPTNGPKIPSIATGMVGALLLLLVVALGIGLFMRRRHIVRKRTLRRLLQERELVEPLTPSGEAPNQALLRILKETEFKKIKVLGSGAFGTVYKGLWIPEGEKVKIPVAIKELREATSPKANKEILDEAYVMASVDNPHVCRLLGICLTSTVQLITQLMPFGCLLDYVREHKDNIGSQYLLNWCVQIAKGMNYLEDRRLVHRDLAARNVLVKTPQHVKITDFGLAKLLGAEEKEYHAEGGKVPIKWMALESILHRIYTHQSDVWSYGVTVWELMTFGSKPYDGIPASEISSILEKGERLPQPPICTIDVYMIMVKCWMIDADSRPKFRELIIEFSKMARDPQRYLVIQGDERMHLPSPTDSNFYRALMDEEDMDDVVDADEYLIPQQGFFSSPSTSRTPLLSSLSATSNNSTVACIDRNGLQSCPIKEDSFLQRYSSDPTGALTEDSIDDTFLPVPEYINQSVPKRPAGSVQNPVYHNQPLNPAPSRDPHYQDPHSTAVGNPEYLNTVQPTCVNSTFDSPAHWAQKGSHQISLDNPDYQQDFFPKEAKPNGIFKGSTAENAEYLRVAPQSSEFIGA
# Summary of the method: as §2
# EGFR (C797S L858R) = target: T4, EGFR (C797S L858R) (Homo sapiens, UniProt P00533, C797S/L858R); assay: Inhibition of EGFR (C797S L858R) biochemical enzymatic activity (HTRF); conditions: 1 mM ATP
# T4 construct: purchased signalchem
# T4 sequence (P00533 25-1210 C797S/L858R): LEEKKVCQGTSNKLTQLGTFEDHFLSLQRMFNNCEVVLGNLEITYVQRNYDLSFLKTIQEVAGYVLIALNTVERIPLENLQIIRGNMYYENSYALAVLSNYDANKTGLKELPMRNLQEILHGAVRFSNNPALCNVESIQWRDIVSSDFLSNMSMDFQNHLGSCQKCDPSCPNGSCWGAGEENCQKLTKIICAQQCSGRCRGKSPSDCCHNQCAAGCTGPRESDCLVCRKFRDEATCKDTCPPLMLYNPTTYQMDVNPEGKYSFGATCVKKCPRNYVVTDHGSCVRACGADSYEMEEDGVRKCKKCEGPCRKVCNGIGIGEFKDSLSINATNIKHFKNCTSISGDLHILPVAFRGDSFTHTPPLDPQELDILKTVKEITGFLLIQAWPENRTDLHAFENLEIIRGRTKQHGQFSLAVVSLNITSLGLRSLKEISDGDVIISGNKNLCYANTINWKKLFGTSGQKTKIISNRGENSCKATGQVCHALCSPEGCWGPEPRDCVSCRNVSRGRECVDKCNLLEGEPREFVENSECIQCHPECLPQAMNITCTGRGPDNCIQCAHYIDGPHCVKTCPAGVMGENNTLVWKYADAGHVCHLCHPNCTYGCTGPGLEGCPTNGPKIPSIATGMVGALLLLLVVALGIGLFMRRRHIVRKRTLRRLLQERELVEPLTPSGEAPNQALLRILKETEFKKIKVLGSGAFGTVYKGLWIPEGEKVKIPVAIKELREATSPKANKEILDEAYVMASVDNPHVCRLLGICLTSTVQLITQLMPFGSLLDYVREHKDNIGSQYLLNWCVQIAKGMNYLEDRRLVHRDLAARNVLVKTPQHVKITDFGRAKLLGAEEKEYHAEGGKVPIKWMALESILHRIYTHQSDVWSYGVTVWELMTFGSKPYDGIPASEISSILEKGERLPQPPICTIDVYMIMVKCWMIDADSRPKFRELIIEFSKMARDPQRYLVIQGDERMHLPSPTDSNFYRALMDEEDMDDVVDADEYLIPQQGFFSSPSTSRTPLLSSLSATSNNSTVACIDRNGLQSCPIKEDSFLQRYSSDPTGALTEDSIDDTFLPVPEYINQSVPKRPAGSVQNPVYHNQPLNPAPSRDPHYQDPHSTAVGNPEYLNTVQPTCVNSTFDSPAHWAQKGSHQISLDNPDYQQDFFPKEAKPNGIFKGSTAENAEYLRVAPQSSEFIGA
# Summary of the method: as §2
# EGFR Exon19Del/T790M = target: T5, EGFR Exon19Del/T790M (Homo sapiens, UniProt P00533, DEL746-750/T790M); assay: Inhibition of EGFR Exon19Del/T790M biochemical enzymatic activity (HTRF); conditions: 1 mM ATP
# T5 construct: purchased Carna Bio
# Summary of the method: as §2
# EGFR[T790M/C797S/L858R] = target: T6, EGFR[T790M/C797S/L858R] (Homo sapiens, UniProt P00533, C797S/L858R/T790M); assay: Inhibition of EGFR[T790M/C797S/L858R] biochemical enzymatic activity (HTRF); conditions: 1 mM ATP
# T6 construct: purchased Carna Bio
# Summary of the method: as §2
# [2] = test system: Ba/F3 cells expressing EGFR mutations; assay: Cell proliferation assay, Ba/F3 cells expressing EGFR mutations (CellTiter-Glo, 72 hours); type: cell-based
# Summary of the method: as §1
# EGFR L858R/T790M = target: T7, EGFR L858R/T790M (Homo sapiens, UniProt P00533, L858R/T790M); assay: Inhibition of EGFR L858R/T790M biochemical enzymatic activity (HTRF); conditions: 1 mM ATP
# T7 construct: purchased Carna Bio
# Summary of the method: as §2
# EGFR (d746-750 C797S) = target: T8, EGFR (d746-750 C797S) (Homo sapiens, UniProt P00533, C797S/DEL746-750); assay: Inhibition of EGFR (d746-750 C797S) biochemical enzymatic activity (HTRF); conditions: 1 mM ATP
# T8 construct: purchased signalchem
# T8 sequence (P00533 with tags, fused parts or gaps DEL746-750/C797S limits assumed): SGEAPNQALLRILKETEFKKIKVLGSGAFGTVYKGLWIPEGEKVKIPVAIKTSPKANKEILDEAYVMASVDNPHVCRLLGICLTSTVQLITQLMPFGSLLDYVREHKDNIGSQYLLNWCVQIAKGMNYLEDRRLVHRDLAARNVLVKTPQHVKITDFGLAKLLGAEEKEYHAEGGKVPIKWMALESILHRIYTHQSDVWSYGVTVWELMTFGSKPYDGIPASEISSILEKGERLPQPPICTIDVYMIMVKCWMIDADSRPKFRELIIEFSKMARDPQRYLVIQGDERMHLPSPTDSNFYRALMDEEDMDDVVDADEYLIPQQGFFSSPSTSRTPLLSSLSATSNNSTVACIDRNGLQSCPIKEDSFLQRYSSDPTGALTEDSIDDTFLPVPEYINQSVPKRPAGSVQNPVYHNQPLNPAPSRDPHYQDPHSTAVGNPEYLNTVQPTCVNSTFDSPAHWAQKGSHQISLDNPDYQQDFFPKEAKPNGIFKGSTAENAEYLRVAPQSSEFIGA
# Summary of the method: as §2
# EGFR L858R = target: T9, EGFR L858R (Homo sapiens, UniProt P00533, L858R); assay: Inhibition of EGFR L858R biochemical enzymatic activity (HTRF); conditions: 1 mM ATP
# T9 construct: purchased Carna Bio
# T9 sequence (P00533 25-1210 L858R): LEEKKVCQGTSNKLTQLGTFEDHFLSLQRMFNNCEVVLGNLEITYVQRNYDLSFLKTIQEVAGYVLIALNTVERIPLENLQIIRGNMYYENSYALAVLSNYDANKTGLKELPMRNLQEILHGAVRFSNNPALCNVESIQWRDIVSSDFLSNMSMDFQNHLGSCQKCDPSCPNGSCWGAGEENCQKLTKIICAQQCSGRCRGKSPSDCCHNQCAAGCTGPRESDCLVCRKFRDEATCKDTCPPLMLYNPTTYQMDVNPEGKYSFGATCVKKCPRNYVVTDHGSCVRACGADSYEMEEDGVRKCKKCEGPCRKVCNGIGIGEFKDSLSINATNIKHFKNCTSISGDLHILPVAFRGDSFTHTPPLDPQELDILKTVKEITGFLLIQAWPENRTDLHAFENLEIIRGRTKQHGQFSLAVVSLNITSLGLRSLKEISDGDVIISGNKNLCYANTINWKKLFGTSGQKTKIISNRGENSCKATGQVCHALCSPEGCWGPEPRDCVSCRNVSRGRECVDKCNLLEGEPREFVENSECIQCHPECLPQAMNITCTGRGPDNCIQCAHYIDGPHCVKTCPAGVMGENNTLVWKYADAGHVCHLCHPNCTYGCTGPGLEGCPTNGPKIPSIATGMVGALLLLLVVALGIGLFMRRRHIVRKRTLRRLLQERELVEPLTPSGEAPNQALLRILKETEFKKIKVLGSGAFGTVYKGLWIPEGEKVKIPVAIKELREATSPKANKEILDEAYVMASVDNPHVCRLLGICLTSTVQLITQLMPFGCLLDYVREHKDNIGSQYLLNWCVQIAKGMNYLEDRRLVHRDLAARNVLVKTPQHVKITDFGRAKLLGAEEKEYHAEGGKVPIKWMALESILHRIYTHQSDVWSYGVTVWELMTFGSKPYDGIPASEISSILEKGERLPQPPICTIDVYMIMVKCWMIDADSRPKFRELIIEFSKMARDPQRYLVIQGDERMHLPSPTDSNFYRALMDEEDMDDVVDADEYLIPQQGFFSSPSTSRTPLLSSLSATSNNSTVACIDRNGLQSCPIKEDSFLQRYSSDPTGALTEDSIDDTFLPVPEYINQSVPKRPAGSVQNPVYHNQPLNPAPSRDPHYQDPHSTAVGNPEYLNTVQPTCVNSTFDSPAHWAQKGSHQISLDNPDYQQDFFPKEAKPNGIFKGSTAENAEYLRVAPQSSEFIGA
# Summary of the method: as §2
# [3] = EGFR[T790M/C797S/d746-750], 1 mM ATP, 1 h at room temperature, read-out: IC50 @T790M - C797S - Del19
# [4] = EGFR Exon19Del, 1 mM ATP, 1 h at room temperature
# [5] = EGFR wild type, 1 h at room temperature, read-out: IC50 @WT
# [6] = EGFR (C797S L858R), 1 h at room temperature, read-out: IC50 @L858-C797S
# [7] = EGFR Exon19Del/T790M, 1 h at room temperature, read-out: IC50 @Del19-T790M
# [8] = EGFR[T790M/C797S/L858R], 1 h at room temperature, read-out: IC50 @T790M- C797S - L858R
# [9] = BaF3 cells, EGFR DEL19 - C797S, read-out: GI50 DEL19 - C797S/BaF3
# [10] = BaF3 cells, EGFR DEL19 - T790-C797S, read-out: GI50 DEL19 - T790-C797S/BaF3
# [11] = BaF3 cells, EGFR L858R - C797S, read-out: GI50 L858R - C797S/BaF3
# [12] = BaF3 cells, EGFR L858R - T790-C797S, read-out: GI50 L858R - T790-C797S/BaF3
# [13] = BaF3 cells, EGFR L858R - T790M, read-out: GI50 L858R - T790M/BaF3
# [14] = BaF3 cells, EGFR L858R, read-out: GI50 L858R/BaF3
# [15] = EGFR DEL19 - T790M, read-out: GI50 DEL19 - T790M
# [16] = EGFR L858R/T790M, 1 h at room temperature, read-out: IC50 @L858R-T790M
# [17] = EGFR (d746-750 C797S), 1 h at room temperature, read-out: IC50 @Del19-C797S
# [18] = 1 h at room temperature, read-out: IC50 @L858R
GI50 (PC-9; read-out: GI50 PC9) [nM],"IC50 [1, 3] [nM]",IC50 (EGFR Exon19Del; [4]) [nM],IC50 (EGFR wild type; [5]) [nM],IC50 (EGFR (C797S L858R); [6]) [nM],IC50 (EGFR Exon19Del/T790M; [7]) [nM],IC50 (EGFR[T790M/C797S/L858R]; [8]) [nM],"GI50 [2, 9] [nM]","GI50 [2, 10] [nM]","GI50 [2, 11] [nM]","GI50 [2, 12] [nM]","GI50 [2, 13] [nM]","GI50 [2, 14] [nM]","GI50 [2, 15] [nM]",IC50 (EGFR L858R/T790M; [16]) [nM],IC50 (EGFR (d746-750 C797S); [17]) [nM],IC50 (EGFR L858R; [18]) [nM],Compound,other results
,,,,,,,,,,,,,,,,,"CN(C)CCN(C)c1ccc2nc3n(c2c1)C12CCC(CN(CCOc4c(cnn4C)-c4cc(cn(C)c4=O)C(=O)N3)C1)C2 (single isomer, unassigned) [Example A85A]","GI50 (PC-9; CellTiter-Glo, read-out: PC9 GI50): 387 nM; IC50 ([1]; EGFR T790M-C797S-Del19, 1 mM ATP, 1 h, room temperature, read-out: IC50 (nM) @T790M - C797S - Del19): 3660 nM; IC50 (EGFR Exon19Del; EGFR Del19, 1 mM ATP, 1 h, room temperature): 138 nM; IC50 (EGFR wild type; EGFR WT, 1 h, room temperature, read-out: IC50 (nM) @WT): > 5000 nM; IC50 (EGFR (C797S L858R); EGFR L858-C797S, 1 h, room temperature, read-out: IC50 (nM) @L858-C797S): 1280 nM; IC50 (EGFR Exon19Del/T790M; EGFR Del19-T790M, 1 h, room temperature, read-out: IC50 (nM) @Del19-T790M): > 5000 nM; IC50 (EGFR[T790M/C797S/L858R]; EGFR T790M-C797S-L858R, 1 h, room temperature, read-out: IC50 (nM) @T790M- C797S - L858R): > 5000 nM; GI50 ([2]; BaF3 cells, EGFR DEL19-C797S, CellTiter-Glo, read-out: DEL19-C797S/BaF3 GI50): 95 nM; GI50 ([2]; BaF3 cells, EGFR DEL19-T790-C797S, CellTiter-Glo, read-out: DEL19-T790-C797S/BaF3 GI50): 119 nM; GI50 ([2]; BaF3 cells, EGFR L858R, CellTiter-Glo, read-out: L858R/BaF3 GI50): 188 nM; GI50 ([2]; BaF3 cells, EGFR L858R-C797S, CellTiter-Glo, read-out: L858R-C797S/BaF3 GI50): 167 nM; GI50 ([2]; BaF3 cells, EGFR L858R-T790-C797S, CellTiter-Glo, read-out: L858R-T790-C797S/BaF3 GI50): 303 nM; GI50 ([2]; BaF3 cells, EGFR L858R-T790M, CellTiter-Glo, read-out: L858R-T790M/BaF3 GI50): 364 nM; GI50 ([2]; EGFR DEL19-T790M, CellTiter-Glo, read-out: DEL19-T790M GI50): 159 nM; IC50 (EGFR L858R/T790M; EGFR L858R-T790M, 1 h, room temperature, read-out: IC50 (nM) @L858R-T790M): > 5000 nM; IC50 (EGFR (d746-750 C797S); EGFR Del19-C797S, 1 h, room temperature, read-out: IC50 (nM) @Del19-C797S): 308 nM; IC50 (EGFR L858R; 1 h, room temperature, read-out: IC50 (nM) @L858R): 1590 nM"
930,514,> 5000,> 5000,> 5000,1140,> 5000,227,474,751,144,299,1130,788,> 5000,> 5000,> 5000,"Cc1cc2cc(n1)-c1cnn(C)c1OCCN1CC3CCC(C3)(C1)n1c(nc3ccc(N4CCC(N5CCN(C)CC5)CC4)cc31)NC2=O (single isomer, unassigned) [Example B59A]",
443,360,3180,> 5000,> 5000,1320,> 5000,82,145,417,58,80,1030,230,> 5000,2390,> 5000,"CCN1CCN(c2ccc3nc4n(c3c2)C23CCC(CN(CCOc5c(cnn5C)-c5cc(cc(C)n5)C(=O)N4)C2)C3)CC1 (single isomer, unassigned) [Example B56A]",
